The text below walks through data of ChEMBL document CHEMBL6134822, “Discovery of a potent and in vivo anti-inflammatory Efficacious, P2Y14R antagonist with a novel benzisoxazoles scaffold by DNA-encoded chemical library technology” (Eur J Med Chem, 2025).

Data set [1] has as its system Mus musculus. As to the kind of experiment: Anti-inflammatory activity in C57BL/6 mouse model of LPS-induced ALI assessed as reduction in IL-6 level in BALF at 2 to 6 mg/kg qd treated for 7 days by ELISA. In kind it is functional, organism-based. The note with it: dose 2-6 mg/kg, time 7.0 day. Background: An ELISA detects its analyte on a solid surface through an enzyme-linked reagent.

Data set [2] addresses T1, P2Y purinoceptor 14 (Homo sapiens, UniProt Q15391).
T1 sequence (Q15391 whole entry): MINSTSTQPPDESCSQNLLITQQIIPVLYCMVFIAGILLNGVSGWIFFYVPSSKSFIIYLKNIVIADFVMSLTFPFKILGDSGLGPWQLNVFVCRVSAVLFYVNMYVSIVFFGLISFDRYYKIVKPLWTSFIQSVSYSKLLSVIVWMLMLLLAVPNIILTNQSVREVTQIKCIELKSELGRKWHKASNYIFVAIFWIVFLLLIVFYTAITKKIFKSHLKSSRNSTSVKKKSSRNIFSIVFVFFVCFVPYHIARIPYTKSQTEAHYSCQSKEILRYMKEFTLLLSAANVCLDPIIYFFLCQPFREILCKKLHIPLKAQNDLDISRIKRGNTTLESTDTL
In words: Antagonist activity at P2Y14 receptor (unknown origin) stably expressed in HEK293 cells assessed as inhibition of forskolin-induced intracellular cAMP production incubated for 30 mins in presence of UDPG by Camp-Glo kit assay. In kind it is functional, cell-based. For orientation: cAMP levels reflect the balance of adenylyl cyclase and phosphodiesterase activity.

In data set [3] the test system is Mus musculus. As to the kind of experiment: Anti-inflammatory activity in C57BL/6 mouse model of LPS-induced ALI assessed as reduction in MPO level in lung tissue at 2 to 6 mg/kg qd treated for 7 days. In kind it is functional, organism-based. The note with it: dose 2-6 mg/kg, time 7.0 day.
A short description of data set [4]: Stability in simulated intestinal fluid assessed as half life. In kind it is physicochemical.
Data set [5] is described as follows: Toxicity in C57BL/6 mouse model of LPS-induced ALI assessed as average body weight change at 2 to 6 mg/kg qd treated for 7 days. In kind it is organism-based. As to conditions: in vivo, 168 h, dose 2-6 mg/kg, time 7 day.
Data set [6] is described as follows: Stability in simulated gastric fluid assessed as half life. In kind it is physicochemical.
The subject of data set [7] is Mus musculus. As to the kind of experiment: Anti-inflammatory activity in C57BL/6 mouse model of LPS-induced ALI assessed as reduction in TNF-alpha level in BALF at 2 to 6 mg/kg qd treated for 7 days by ELISA. In kind it is functional, organism-based. The note with it: dose 2-6 mg/kg, time 7.0 day.
A short description of data set [8]: Microsomal stability in human liver microsomes assessed as intrinsic clearance. In kind it is ADME, Microsome. As to conditions: read-out: CLH.
The target of data set [9] is T1, P2Y purinoceptor 14. As to the kind of experiment: Binding affinity to CM5 chip-immobilized P2Y14 receptor (unknown origin) assessed as equilibrium dissociation constant by SPR analysis.
For data set [10], the system named is Mus musculus. As to the kind of experiment: Anti-inflammatory activity in C57BL/6 mouse model of LPS-induced ALI assessed as reduction in IL-1beta level in BALF at 2 to 6 mg/kg qd treated for 7 days by ELISA. In kind it is functional, organism-based. The note with it: dose 2-6 mg/kg, time 7.0 day.
Data set [11] has as its system Mus musculus. In words: Anti-inflammatory activity in C57BL/6 mouse model of LPS-induced ALI assessed as reduction in lung tissue damage at 2 to 6 mg/kg qd treated for 7 days by H and E staining based analysis. In kind it is functional, organism-based. As to conditions: dose 2-6 mg/kg, time 7.0 day.
Data set [12] can be described thus: Microsomal stability in human liver microsomes assessed as half life. In kind it is ADME, Microsome. A general note: Microsomes from liver hold many membrane-bound enzymes, among them those of drug oxidation.

Calls of active or inactive are those of the source. The rule behind the calls is not given here.

By IC50 is commonly meant the concentration that inhibits the measured activity by half. Usually half-life stands for the time in which the quantity being followed falls by half. The Kd is the concentration at which binding is half-saturated.

In the case of `CNC(=O)C1CN(C(=O)c2onc3ccccc23)CC12CCN(C(=O)c1noc3ccccc13)CC2` (configuration not stated), the outcome in data set [1], in data set [3], in [7], in data set [10] and in data set [11] was Active. Moreover, the IC50 in [2] was found to be 0.0236 µM. Also, the half-life in data set [4] was above 5 h; in [6], above 50 h; in [12], 5.9 h. In addition, in [5], the Activity result was “Non-toxic”. Besides, the microsomal CLint in data set [8] turned out to be 25.6 µL/min/mg. Also, the Kd in data set [9] worked out at 7.26 µM.
